Results from patent US12281299B2, “Control of nitrogen fixation in rhizobia that associate with cereals” (Massachusetts Institute of Technology, priority 2019, dated 2025).

System: R. sp. IRBG74
Test: Nitrogenase assays (Rhizobia strains), acetylene reduction
Type: cell-based, Rhizobium sp.
Settings: DAPG-inducible T7 RNAP driving v3.2 refactored pathway in R. sp. IRBG74
Protocol: Nitrogenase assays (Rhizobia strains). […] 5 μl of overnight cultures was diluted into 500 μl of UMS medium with 30 mM succinate, 10 mM sucrose, and 10 mM NH4Cl and appropriate antibiotics in 96-deepwell and incubated for 24 h at 30° C., 900 rpm in a Multitron incubator. Cultures were diluted to an OD600 of 0.4 into 2 mL of UMS medium plus 30 mM succinate and 10 mM sucrose supplemented with appropriate antibiotics, 1.43 mM serine and an inducer (if necessary) in 10 mL glass vials with PTFE-silicone septa screw caps. Headspace in the vials was replaced with 99% argon and 1% oxygen gas using a vacuum manifold. Acetylene was injected to 10% (vol/vol) into each culture vial to begin the reaction. […]
Ethylene quantification. Ethylene production was analyzed by gas chromatography using an Agilent 7890A GC system (Agilent Technologies, Inc., CA USA) equipped with a PAL headspace autosampler and flame ionization detector as follows. […] Acetylene and ethylene were detected at 3.0 min and 3.7 min after injection, respectively. Ethylene production was quantified by integrating the 3.7 min peak using Agilent GC/MSD ChemStation Software.
The bacteria were grown in appropriate media, including antibiotics, and then evaluated for nitrogenase activity using an acetylene reduction assay (see Methods and Materials Section). […]

Compound | induction of nitrogenase activity
CC(=O)c1c(O)cc(O)c(C(C)=O)c1O [DAPG, 2,4-Diacetylphloroglucinol, reference compound] | 9 fold

System: A. caulinodans ORS571
Test: not given
Type: cell-based, Azorhizobium caulinodans
Settings: sensor controlling NifA(L94Q/D95Q)/RpoN expression in A. caulinodans
Protocol: Nitrogenase assays (A. caulinodans and P. stutzeri). Cultures were initiated by inoculating a single colony into 0.2 mL of TY medium supplemented with appropriate antibiotics in 96-deepwell plates and grown overnight at 37° C. and 30° C. for A. caulinodans and P. stutzeri, respectively, 900 rpm in a Multitron incubator. 5 μl of overnight cultures was diluted into 500 μl of UMS medium with 30 mM lactate and 10 mM NH4Cl and appropriate antibiotics in 96-deepwell and incubated for 24 h at 37° C. and 30° C. for A. caulinodans and P. stutzeri, respectively, 900 rpm in a Multitron incubator. Cultures were diluted to an OD600 of 0.4 into 2 mL of UMS medium plus 30 mM lactate supplemented with appropriate antibiotics and an inducer (if necessary) in 10 mL glass vials with PTFE-silicone septa screw caps. Headspace in the vials was replaced with 99% argon plus 1% oxygen gas using a vacuum manifold. Acetylene was injected to 10% (vol/vol) into each culture vial to begin the reaction. The acetylene reduction was carried out for 20 h at 30° C. with shaking at 250 rpm, followed by quenching via the addition of 0.5 mL of 4 M NaOH to each vial.
Ethylene quantification. Ethylene production was analyzed by gas chromatography using an Agilent 7890A GC system (Agilent Technologies, Inc., CA USA) equipped with a PAL headspace autosampler and flame ionization detector as follows. An aliquot of 0.5 mL headspace preincubated to 35° C. for 30 s was injected and separated for 4 min on a GS-CarbonPLOT column (0.32 mm×30 m, 3 microns; Agilent) at 60° C. and a He flow rate of 1.8 mL/min. Detection occurred in a FID heated to 300° C. with a gas flow of 35 mL/min H2 and 400 mL/min air. Acetylene and ethylene were detected at 3.0 min and 3.7 min after injection, respectively. Ethylene production was quantified by integrating the 3.7 min peak using Agilent GC/MSD ChemStation Software.

Compound | dynamic range of nitrogenase activity | nitrogenase activity higher than the wild-type
N=C(N)NCCCC(NC(CCC(=O)O)C(=O)O)C(=O)O (stereo not shown) [nopaline, Nopaline] | 412 fold | –
CC(NC(CCCNC(=N)N)C(=O)O)C(=O)O (stereo not shown) [octopine, Octopine] | – | 40%
O=C([O-])c1ccccc1O.[Na+] [salicylic acid, Salicylic acid sodium salt] | 1000 fold | –

System: R. sp. IRBG74
Test: Genetic part characterization for Rhizobia (promoters, RBSs, terminators, inducible systems; fluorescence reporter, flow cytometry)
Type: cell-based, Rhizobium sp.
Settings: synthetic RBS strength in R. sp. IRBG74; plasmid pMR-40, IPTG-inducible system, 1 mM IPTG induction
Source text: Construction and characterization genetic parts for Rhizobia. Genetic part libraries were built on a pBBR1-ori plasmid pMR-1 using Gibson assembly (New England Biolabs, Cat # E2611). The fluorescence proteins, GFPmut3b and mRFP1 were used as reporters. The Anderson promoter library (Anderson, J. et al. BglBricks: A flexible standard for biological part assembly. 4, 1 (2010)) on the BioBricks Registry were utilized for the characterization of constitutive promoters (FIGS. 11A-11C). To characterize inducible promoters, a regulator protein is constitutively expressed by the PlacIq promoter, and GFP expression is driven by a cognate inducible promoter from the opposite direction, facilitating replacement of the reporter with gene of interest (e.g., T7 RNAP and nifA) and transfer of the controller unit across different plasmid backbones for diverse microbes. The following combinations of cognate regulators and inducible promoters were characterized. IPTG inducible LacI-A1lacO1, DAPG inducible PhlF-PPhl, aTc inducible TetR-PTet, 3OC6HSL inducible LuxR-PLux, salicylic acid inducible NahR-PSal, and cuminic acid inducible CymR-PCym systems were optimized for R. sp. IRBG74 (FIG. 14). Opine inducible OccR-Pocc, and nopaline inducible NocR-Pnoc systems were optimized for A. caulinodans (FIGS. 20A-20F and Tables 9 and 10). For RBS characterization, an IPTG-inducible GFP expression plasmid pMR-40 was used and GFP was expressed to the highest levels with 1 mM IPTG (FIGS. 12A-12B). RBS library for GFP was designed using the RBS library calculator at the highest-resolution mode, and the 3′ end of the 16S rRNA sequences were adjusted according to the species (3′-ACCTCCTTC-5′ for R. sp. IRBG74). Terminators for T7 RNAP were characterized by placing a terminator between two fluorescence reporters expressed from a single T7 wild-type promoter located upstream of the first fluorescence protein GFP. The expression of the two fluorescence proteins is enabled by the controller strain MR18 encoding the IPTG-inducible T7 RNAP system by 1 mM IPTG (FIGS. 13A-13B). The terminator strength (Ts) was determined by normalizing fluorescence levels of a terminator construct by a reference construct pMR-66 where a 40 bp spacer was placed between the reporters. All genetic parts for Rhizobia were characterized as follows.

Compound | Strength (GFP, au)
RBST-12 (DNA TAACAATTTCACACATCTAGAGCTAATCATCGCGTACTAAAAAGGCAAGTAATG; chemistry not fully specified) | 1138 au
RBST-13 (DNA TAACAATTTCACACATCTAGAGCTAATCTTCGCGTACTAAAAAGGCAAGTAATG; chemistry not fully specified) | 895.5 au
RBST-14 (DNA TAACAATTTCACACATCTAGAGCTAATCTTCGCGTACTAAGAAGGCAAGTAATG; chemistry not fully specified) | 632.5 au
RBST-15 (DNA TAACAATTTCACACATCTAGAGCTAATCATCTCGTACTAAATAGGCAAGTAATG; chemistry not fully specified) | 648.5 au
RBST-16 (DNA TAACAATTTCACACATCTAGAGCTAATCATCTCGTACTAATAAGGCAAGTAATG; chemistry not fully specified) | 532 au
RBST-17 (DNA TAACAATTTCACACATCTAGAGCTAATCTTCTCGTACTAAAGAGGCAAGTAATG; chemistry not fully specified) | 488 au
RBST-18 (DNA TAACAATTTCACACATCTAGAGCTAATCATCGCGTACTCAATAGGCCAGTAATG; chemistry not fully specified) | 305.5 au
RBST-19 (DNA TAACAATTTCACACATCTAGAGCTAATCATCGCGTACTAAGTAGGCAAGTAATG; chemistry not fully specified) | 242 au
RBST-20 (DNA TAACAATTTCACACATCTAGAGCTAATCATCTCGTACTAACGAGGCAAGTAATG; chemistry not fully specified) | 248 au
RBST-21 (DNA TAACAATTTCACACATCTAGAGCTAATCATCGCGTACTCAGCAGGCAAGTAATG; chemistry not fully specified) | 183 au
RBST-22 (DNA TAACAATTTCACACATCTAGAGCTAATCTTCGCGTACTAAGTAGGCAAGTAATG; chemistry not fully specified) | 130 au
RBST-23 (DNA TAACAATTTCACACATCTAGAGCTAATCTTCGCGTACTAATTAGGCAAGTAATG; chemistry not fully specified) | 84.4 au
RBST-24 (DNA TAACAATTTCACACATCTAGAGCTAATCTTCTCGTACTAACAAGGCAAGTAATG; chemistry not fully specified) | 75.15 au
RBST-25 (DNA TAACAATTTCACACATCTAGAGCTAATCATCTCGTACTCAATAGGCAAGTAATG; chemistry not fully specified) | 45.45 au
RBST-26 (DNA TAACAATTTCACACATCTAGAGCTAATCATCTCGTACTAAGCACGCAAGTAATG; chemistry not fully specified) | 36 au
RBST-27 (DNA TAACAATTTCACACATCTAGAGCTAATCATCGCGTACTAACTACGCAAGTAATG; chemistry not fully specified) | 12.2 au
RBST-28 (DNA TAACAATTTCACACATCTAGAGCTAATCTTCGCGTACTAAGAACGCAAGTAATG; chemistry not fully specified) | 13 au
RBST-29 (DNA TAACAATTTCACACATCTAGAGCTAATCTTCGCGTACTAAAAACGCAAGTAATG; chemistry not fully specified) | 4.6 au
RBST-30 (DNA TAACAATTTCACACATCTAGAGCTAATCTTCGCGTACTAACAACGCAAGTAATG; chemistry not fully specified) | 2.95 au
RBST-31 (DNA TAACAATTTCACACATCTAGAGCTAATCTTCTCGTACTCATGACGCAAGTAATG; chemistry not fully specified) | 1.45 au

System: P. protegens Pf-5
Test: Genetic part characterization for P. protegens (promoters, RBSs, terminators, inducible systems; fluorescence reporter, flow cytometry)
Type: cell-based, Pseudomonas protegens
Settings: P. protegens Pf-5, pRO1600 plasmid
Source text: Construction and characterization genetic parts for P. protegens. Genetic part libraries were built on a pRO1600-ori plasmid pMR-2 using Gibson assembly (New England Biolabs, Cat # E2611). The fluorescence proteins, GFPmut3b and mRFP1 were used as reporters. The Anderson promoter library on the BioBricks Registry were utilized for the characterization of constitutive promoters (FIGS. 11A-11C). The following combinations of cognate regulators and inducible promoters were characterized. IPTG inducible LacI-Ptac, DAPG inducible PhlF-PPhl, aTc inducible TetR-PTet, 3OC6HSL inducible LuxR-PLux, arabinose inducible AraC-PBAD, cuminic acid inducible CymR-PCym, and naringenin inducible FdeR-PFde were optimized (FIGS. 15A-15C). […] RBS library for GFP was designed using the RBS library calculator at the highest-resolution mode, and the 3′ end of the 16S rRNA sequences were adjusted according to the species (3′-ACCTCCTTA-5′ for P. protegens Pf-5). Terminators for T7 RNAP were characterized by placing a terminator between two fluorescence reporters expressed from a single T7 wild-type promoter located upstream of the first fluorescence protein GFP. The expression of the two fluorescence proteins is enabled by an IPTG-inducible T7 RNAP expression system of the controller strain MR7 (FIGS. 13A-13B). All genetic parts for P. protegens Pf-5 were characterized as follows.

Compound | function of inducible system
CC(=O)c1c(O)cc(O)c(C(C)=O)c1O [DAPG, 2,4-Diacetylphloroglucinol, reference compound] | functional
